Assay results from US12486272B2 (NIHON NOHYAKU CO., LTD., priority 2019, dated 2025).

How the values were obtained:
Ctenocephalides felis = assay: whole plant or invertebrate; assay type: in vivo; settings: 50 ppm in bovine blood, oral via feeder, adults, following day, read-out: mortality rate
Haemonchus contortus = assay: Larval motility assay on Haemonchus contortus; settings: 96 h, L1 stage larvae, 4 days, relative to DMSO only, read-out: percent motility inhibition
Description: Larval Motility Assay on Haemonchus contortus DMSO diluted solutions of various compounds of the present invention were added at the final concentration of 50 ppm to the wells of a 96-well plate containing a predetermined conditioned medium. Twenty L1 stage larvae of H. contortus were introduced into each well of the 96-well plate. The plate was allowed to stand for 4 days, and then larval motility was examined. The percent motility inhibition in the wells of each treatment was calculated relative to the wells of treatment with DMSO only.

Dirofilaria immitis = assay: Larval motility assay on Dirofilaria immitis; settings: 72 h, L1 stage larvae, 3 days, relative to DMSO only, read-out: percent motility inhibition
Description: Larval Motility Assay on Dirofilaria immitis
Five hundred L1 stage larvae of D. immitis were diluted in a predetermined conditioned medium and introduced into each well of a 96-well plate. DMSO diluted solutions of various compounds of the present invention were added at the final concentration of 50 ppm to the wells of the 96-well plate. The plate was allowed to stand for 3 days, and then larval motility was examined. The percent motility inhibition in the wells of each treatment was calculated relative to the wells of treatment with DMSO only.

Rhipicephalus sanguineus = assay: Assay for transdermal parasiticidal activity against nymphs of Rhipicephalus sanguineus; assay type: in vivo; settings: 48 h, read-out: mortality rate
Source text: Assay for Transdermal Parasiticidal Activity Against Nymphs of Rhipicephalus sanguineus
DMSO diluted solutions of various compounds of the present invention were individually diluted to the final concentration of 100 ppm with an acetone/triton mixture and applied to the inside of vented sample bottles. After overnight drying, ten nymphs of R. sanguineus were introduced into each bottle, and the mortality rate was examined two days later. Aberrant adults were regarded as the dead.

Row | Structure (SMILES) | mortality at 50 ppm (Ctenocephalides felis) | inhibition at 50 ppm (Haemonchus contortus) | inhibition at 50 ppm (Dirofilaria immitis) | mortality at 100 ppm (Rhipicephalus sanguineus)
1 | CCS(=O)(=O)c1cc(/C(=N/OCCSC)n2cncn2)cnc1-c1nc2cc(C(F)(F)C(F)(F)F)nnc2n1C [Compound 1-22] | ≥ 50% | ≥ 50% | ≥ 50% | 
2 | CCS(=O)(=O)c1cc(/C(=N/OCCSC)SC)cnc1-c1nc2cc(C(F)(F)C(F)(F)F)nnc2n1C [Compound 1-19, Methyl 5-ethylsulfonyl-N-(2-methylthioethoxy)-6-(6-pentafluoroethyl-3-methyl-3H-imidazo[4,5-c]pyridazin-2-yl)nicotinyl thioimidate] |  | ≥ 50% | ≥ 50% | ≥ 50%
3 | CCS(=O)(=O)c1cc(/C(=N/OCCS(C)(=O)=O)OC)cnc1-c1nc2cc(C(F)(F)C(F)(F)F)nnc2n1C [Compound 1-3, Methyl 5-ethylsulfonyl-N-(2-methylsulfonylethoxy)-6-(6-pentafluoroethyl-3-methyl-3H-imidazo[4,5-c]pyridazin-2-yl)nicotinimidate] | ≥ 50% | ≥ 50% | ≥ 50% | 
4 | CCS(=O)(=O)c1cc(/C(=N/OCCSC)OC)cnc1-c1nc2cc(C(F)(F)C(F)(F)F)nnc2n1C [Compound 1-1, methyl 5-ethylsulfonyl-N-(2-methylthioethoxy)-6-(6-pentafluoroethyl-3-methyl-3H-imidazo[4,5-c]pyridazin-2-yl)nicotinimidate] | ≥ 50% | ≥ 50% | ≥ 50% | ≥ 50%
5 | CCS(=O)(=O)c1cc(/C(Br)=N/OCCSC)cnc1-c1nc2cc(C(F)(F)C(F)(F)F)nnc2n1C [Compound 1-16] |  |  | ≥ 50% | 
